Assay results published in US9173976B2, “Compositions and methods for the treatment of bone voids and open fractures” (POLYPID LTD., priority 2012, dated 2015).
Converted amounts (≈) assume the structure as drawn.

Assays:
[1] = test system: Staphylococcus aureus (ATCC 25923); test: Antibacterial activity of Doxycycline released from coated bone particles; format: cell-based; details: ATCC25923, released at different time points over 30 days following hydration
Method: The antibacterial activity against Staphylococcus aureus (ATCC 25923), of Doxycycline that was released from bone particles coated with the matrix composition of the invention was followed for a period of 30 days following its hydration (FIG. 4). The MIC (Minimal Inhibitory Concentration) for Doxycycline that was released from the matrix composition at different time points was calculated to be ˜1 μg/ml, and MIC 50 (the concentration that inhibits 50% growth) was ˜0.1 μg/ml, values that were similar to the control free Doxycycline.

[2] = Stability of entrapped Doxycycline during hydration in FBS solution at 37° C.; format: physicochemical; details: after hydration for 21 days, matrix: released+reservoir
Method: Doxycycline is known to degenerate under hydrating conditions. The matrix composition of the present invention can protect Doxycycline from this degradation. The stability of the entrapped Doxycycline during the hydration of the matrix composition (in FBS solution at 37° C.) was tested. At each time point two parameters were tested: 1) Doxycycline molecules released from the medical device of the invention and 2) Doxycycline molecules reservoir in the medical device of the invention. The latter was extracted from the formulation using methylene chloride. The sum of the two Doxycycline quantities represents the overall quantity of Doxycycline in the product at each time point. Free Doxycycline, incubated under the same conditions, was used as control. Results are plotted in FIG. 3.

S. aureus = details: Shaarei-Zedek Jerusalem Medical Center Database; cited from earlier work

Compound | MIC50 ([1]; read-out: MIC 50 (the concentration that inhibits 50% growth)) [µg/mL] | MIC ([1]; read-out: MIC (Minimal Inhibitory Concentration)) [µg/mL] | overall doxycycline remaining intact, of the initial dose [2] [%] | isolated S. aureus sub species in the clinic resistant to the antibiotic (S. aureus)
C[C@H]1c2cccc(O)c2C(=O)C2=C(O)[C@]3(O)C(=O)C(C(N)=O)=C(O)[C@@H](N(C)C)[C@@H]3[C@@H](O)[C@@H]21 [free Doxycycline, Doxycycline] | ~0.1 (≈ 0.225 µM) | ~1 (≈ 2.25 µM) | 20 | 
penicillin |  |  |  | more than 50%
gentamicin |  |  |  | 30-40%
